The melting point is the temperature, or range, at which the solid turns liquid.

On to `CCOc1ccccc1-c1nc(C2(C)CC(c3ccc(OC)c(OC4CCCC4)c3)=NO2)no1` (centres unmarked) [Compound No. 59, 3-[3-(3-Cyclopentyloxy-4-methoxyphenyl)-5-methyl-4,5-dihydro-isoxazol-5-yl]-5-(2-ethoxy-phenyl)-[1,2,4]oxadiazole], for which the melting point lay within 138.5 to 139 °C.
As for `COc1ccc(C2=NOC(C)(c3noc(C4CC4)n3)C2)cc1OC1CCCC1` (centres unmarked) [Compound No. 60, 3-[3-(3-Cyclopentyloxy-4-methoxyphenyl)-5-methyl-4,5-dihydro-isoxazol-5-yl]-5-cyclopropyl-[1,2,4]oxadiazole], the figure is 105 to 106 °C.
In turn, `COc1cccc(-c2nc(C3(C)CC(c4ccc(OC)c(OC5CCCC5)c4)=NO3)no2)c1` (centres unmarked) [Compound No. 74, 3-[3-(3-Cyclopentyloxy-4-methoxyphenyl)-5-methyl-4,5-dihydro-isoxazol-5-yl]-5-(3-methoxy-phenyl)-[1,2,4]oxadiazole] showed a melting point of 121 to 122 °C.
As for `COc1ccc(C2=NOC(C)(c3noc(-c4ccccc4Cl)n3)C2)cc1OC1CCCC1` (centres unmarked) [Compound No. 76, 5-(2-Chlorophenyl)-3-[3-(3-cyclopentyloxy-4-methoxyphenyl)-5-methyl-4,5-dihydro-isoxazol-5-yl]-[1,2,4]oxadiazole], the figure is 122 °C; as for `COc1ccc(C2=NOC(C)(c3noc(-c4ccc(Cl)c(Cl)c4)n3)C2)cc1OC1CCCC1` (centres unmarked) [Compound No. 79, 3-[3-(3-Cyclopentyloxy-4-methoxyphenyl)-5-methyl-4,5-dihydro-isoxazol-5-yl]-5-(3,4-dichloro-phenyl)-[1,2,4]oxadiazole], 113.5 to 114.9 °C.

The values are drawn from patent US20070259874A1, “Phosphodiesterase Inhibitors” (priority 2003, published 2007).
